The text below walks through data of patent US9725469B2, “Amino-oxazine and amino-dihydrothiazine compounds as beta-secretase modulators and methods of use” (Amgen Inc., priority 2012, dated 2017).

The IC50 is the concentration that inhibits the measured activity by half.

The test system of test [1] is Aβ40 in conditioned medium of cells stably expressing Amyloid Precursor Protein (APP). Briefly: In vitro BACE cell-based assay (HEK cell assay, Aβ40 sandwich ELISA). Conditions: average IC50, Aβ40, 24 h incubation. The method, then: In Vitro BACE Cell-Based Assay
The cell-based assay measures inhibition or reduction of Aβ40 in conditioned medium of test compound treated cells expressing amyloid precursor protein.
Cells stably expressing Amyloid Precursor Protein (APP) were plated at a density of 40K cells/well in 96 well plates (Costar). The cells were cultivated for 24 hours at 37° C. and 5% CO2 in DMEM supplemented with 10% FBS. The test compounds were then added to cells in 10-point dose response concentrations with the starting concentration being either 100 μM or 10 μM. The compounds were diluted from stock solutions in DMSO and the final DMSO concentration of the test compounds on cells was 0.1%. After 24 h of incubation with the test compounds the supernatant conditioned media was collected and the Aβ 40 levels were determined using a sandwich ELISA. The IC50 of the compound was calculated from the percent of control or percent inhibition of Aβ 40 as a function of the concentration of the test compound.
The sandwich ELISA to detect Aβ 40 was performed in 96 well microtiter plates, which were pre-treated with goat anti-rabbit IgG (Pierce). The capture and detecting antibody pair that were used to detect Aβ 40 from cell supernatants were affinity purified pAb40 (Biosource) and biotinylated 6E10 (Signet Labs Inc.), respectively. The optimal concentration for the pAb40 antibody was 3 μg/ml in Superblock/TBS (Pierce) that was supplemented with 0.05% Tween 20 (Sigma). Optimal concentration for the detection antibody 6E10-biotinylated was 0.5 μg/ml in Superblock/TBS (Pierce) that had been supplemented with 2% normal goat serum and 2% normal mouse serum.
Cellular supernatants were incubated with the capture antibody for 3 h at 4° C., followed by 3 wash steps in TBS-tween (0.05%). The detecting antibody incubation was for 2 h at 4° C., again followed by the wash steps as described previously. The final readout of the ELISA is Time-Resolved Fluorescence (counts per minute) using Delfia reagents Streptavidin-Europium and Enhancement solutions (Perkin Elmer) and the Victor 2 multilabel counter (Perkin Elmer).
In general terms: In an ELISA, binding on a coated surface is turned into a signal by an enzyme label.

For test [2], the target named is BACE 1 (beta secretase enzyme) (Homo sapiens, UniProt P56817). Briefly: In vitro enzymatic BACE FRET assay. The class given is biochemical. Conditions: average IC50, pH 4.2. The method, then: In Vitro Enzymatic BACE FRET (Fluorescence Resonance Energy Transfer) Assay
Sequence of BACE 1 (beta secretase enzyme) (P56817 46-501): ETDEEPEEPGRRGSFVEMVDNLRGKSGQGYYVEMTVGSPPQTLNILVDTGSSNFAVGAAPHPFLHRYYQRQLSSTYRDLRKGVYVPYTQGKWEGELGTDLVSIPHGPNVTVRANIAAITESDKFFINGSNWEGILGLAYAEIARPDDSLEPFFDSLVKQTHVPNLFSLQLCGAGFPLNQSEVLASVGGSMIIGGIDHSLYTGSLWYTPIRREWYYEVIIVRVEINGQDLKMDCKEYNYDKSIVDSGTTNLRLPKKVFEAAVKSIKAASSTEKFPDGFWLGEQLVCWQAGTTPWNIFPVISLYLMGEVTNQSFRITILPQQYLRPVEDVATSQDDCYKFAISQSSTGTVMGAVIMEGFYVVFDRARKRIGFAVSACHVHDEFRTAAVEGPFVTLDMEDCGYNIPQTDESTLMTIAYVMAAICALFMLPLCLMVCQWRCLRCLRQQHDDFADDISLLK
The assay buffer used in this screen is 0.05 M acetate, pH 4.2, 10% DMSO final, 100 uM genapol (which is a nonionic detergent, below its Critical Micelle Concentration). The beta secretase enzyme (0.2 nM) is pre-incubated for one hour with inhibitors, typically in about 1 uL of DMSO according to a serial dilution, are added thereto. This assay is effectively started by the addition of FRET substrate (50 nM) and the combination is incubated for one hour. The FRET assay is terminated with by addition of Tris buffer, which raises the pH to neutrality, and the fluorescence is determined. The FRET substrate is a peptide with commercially available fluorophore and quencher, on opposite sides of the BACE cleavage site. Proteolytic cleavage of the FRET substrate releases quenching of fluorescence (excitation […] and […]).

For the next test, the target named is T1, Cathepsin D (Homo sapiens, UniProt P07339).
T1 construct: made in house; host or cells: CHO cells
T1 sequence (P07339 65-412, species assumed): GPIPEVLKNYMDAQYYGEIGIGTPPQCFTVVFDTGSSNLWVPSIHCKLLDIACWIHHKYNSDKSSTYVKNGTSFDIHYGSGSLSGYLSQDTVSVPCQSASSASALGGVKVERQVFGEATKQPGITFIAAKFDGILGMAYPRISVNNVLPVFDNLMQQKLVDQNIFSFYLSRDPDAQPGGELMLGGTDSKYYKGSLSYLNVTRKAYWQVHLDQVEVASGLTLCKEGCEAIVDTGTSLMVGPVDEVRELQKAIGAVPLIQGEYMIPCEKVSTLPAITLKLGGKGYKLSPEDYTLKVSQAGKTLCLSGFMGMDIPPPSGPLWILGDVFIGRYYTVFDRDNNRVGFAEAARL
Briefly: In vitro enzymatic Cat D (Cathepsin D) FRET assay. The class given is biochemical. The following applies: average IC50, pH 3.5. The method, then:
In Vitro Enzymatic Cat D (Cathepsin D) FRET (Fluorescence Resonance Energy Transfer) Assay
Recombinant CathepsinD was expressed in CHO cells. The assay buffer for CathepsinD is 0.05 M citrate pH 3.5, 10% DMSO final, 5 mM CHAPS. The CathepsinD enzyme (9 nM) is pre-incubated for one hour with inhibitors, typically in about 1 uL of DMSO according to a serial dilution, is added thereto. The assays are effectively started by the addition of different FRET substrates (20 nM for CathepsinD) and the combination is incubated for one hour. The FRET assay is terminated with by addition of Tris buffer, which raises the pH to neutrality, and the fluorescence is determined. The FRET substrate is a peptide with commercially available fluorophore and quencher, on opposite sides of the BACE cleavage site. The CathepsinD substrate peptide sequence is based on sequence #1 of Table 1 from Gulnik et al. FEBS Letters v413 p 379-384 1997. Proteolytic cleavage of the FRET substrate releases quenching of fluorescence (CathepsinD excitation 500 nm and emission 580 nm). […]

The subject of the next test is Abeta 40. Briefly: In vivo inhibition of beta-secretase: Abeta 40 reduction in rat CSF and brain. Conditions: after 4 hrs; for % reduction of rat CSF Abeta 40 levels at 10 mpk: Abeta 40, rat CSF; for % reduction of rat brain levels at 10 mpk: Abeta 40, rat brain. The text has this: In Vivo Inhibition of Beta-Secretase
Several animal models, including mouse, rat, dog, and monkey, may be used to screen for inhibition of beta-secretase activity in vivo following administration of a test compound sample. Animals used in this invention can be wild type, transgenic, or gene knockout animals. For example, the Tg2576 mouse model, prepared and conducted as described in Hsiao et al., 1996, Science 274, 99-102, and other non-transgenic or gene knockout animals are useful to analyze in vivo inhibition of Amyloid beta peptide (Abeta) production in the presence of inhibitory test compounds. Generally, 2 to 18 month old Tg2576 mice, gene knockout mice or non-transgenic animals are administered test compounds formulated in vehicles, such as cyclodextran, phosphate buffers, hydroxypropyl methylcellulose or other suitable vehicles. One to twenty-four hours following the administration of compound, animals are sacrificed, and brains as well as cerebrospinal fluid (CSF) and plasma are removed for analysis of A-beta levels and drug or test compound concentrations (Dovey et al., 2001, Journal of Neurochemistry, 76, 173-181) Beginning at time 0, animals are administered by oral gavage, or other means of delivery such as intravenous injection, an inhibitory test compound of up to 100 mg/kg in a standard, conventional formulation, such as 2% hydroxypropyl methylcellulose, 1% Tween80. A separate group of animals receive 2% hydroxypropyl methylcellulose, 1% Tween80 alone, containing no test compound, and serve as a vehicle-control group. At the end of the test period, animals are sacrificed and brain tissues, plasma or cerebrospinal fluid are collected. Brains are either homogenized in 10 volumes (w/v) of 0.2% diethylamine (DEA) in 50 mM NaCl (Best et al., 2005, Journal of Pharmacology and Experimental Therapeutics, 313, 902-908), or in 10 volumes of 0.5% TritonX-100 in Tris-buffered saline (pH at about 7.6). Homogenates are centrifuged at 355,000 g, 4° C. for 30 minutes. CSF or brain supernatants are then analyzed for the presence of A-beta peptide by specific sandwich ELISA assays based on ECL (Electrochemiluminescence) technology. For example, rat Abeta40 is measured using biotinylated-4G8 (Signet) as a capture antibody and Fab40 (an in-house antibody specific to the C-terminal of Abeta40) as a detection antibody. For example, 4 hours after administration of 30 mg/kg oral dose of the test compound in 2% hydroxypropyl methylcellulose, 1% Tween80 (pH2.2) to 200 g male Sprague Dawley rats, amyloid beta peptide levels are measured for reduction by X % and Y % in cerebrospinal fluid and brain, respectively, when compared to the levels measured in the vehicle-treated rats.
Actual vehicles used: Oral: 2% HPMC, 1% Tween80, pH 2.2
The compounds of the invention may be shown to reduce the formation and/or deposition of amyloid beta peptide in the cerebrospinal fluid (CSF) as well as in the brain of a mouse or rat at either 3 mpk, 10 mpk or 30 mpk (mpk=mg compound per kg weight of the animal) dosing concentrations after 4 hrs.

Each structure is given as a SMILES string.

As to `COc1cnc2c(Nc3ccc4c(c3)[C@@]3(CCOC(N)=N3)c3cc(C5=CCOCC5)ncc3O4)nccc2c1` [Example 43, (5S)-3-(3,6-dihydro-2H-pyran-4-yl)-N~7~-(3-methoxy-1,7-naphthyridin-8-yl)-5′,6′-dihydrospiro[chromeno[2,3-c]pyridine-5,4′-[1,3]oxazine]-2′,7-diamine], the half-maximal inhibitory concentration (IC50) is 2.6 nM in test [1] (Homo sapiens, HEK293); 14.8 nM in test [2]; 400000 nM at Cathepsin D.

Turning to `C=C(C)c1cc2c(cn1)Oc1ccc(Nc3nccc4cc(OC)cnc34)cc1[C@@]21CCOC(N)=N1` [Example 37, (5S)-N~7~-(3-methoxy-1,7-naphthyridin-8-yl)-3-(1-methylethenyl)-5′,6′-dihydrospiro[chromeno[2,3-c]pyridine-5,4′-[l,3]oxazine]-2′,7-diamine], in the test with Abeta 40, the “% reduction of rat CSF Abeta 40 levels at 10 mpk” value was 38%. Moreover, the “% reduction of rat brain levels at 10 mpk” value in the test on Abeta 40 is reported as 32%. In addition, the IC50 worked out at 3.8 nM in test [1] (Homo sapiens, HEK293); 17.8 nM in test [2]; 546000 nM at Cathepsin D.

Take `COc1cnc2c(Nc3ccc4c(c3)[C@@]3(CCSC(N)=N3)c3cc(C5=CCOCC5)nc(F)c3O4)nccc2c1` [Example 32, (5S)-3-(3,6-dihydro-2H-pyran-4-yl)-1-fluoro-N~7~-(3-methoxy-1,7-naphthyridin-8-yl)-5′,6′-dihydrospiro[chromeno[2,3-c]pyridine-5,4′-[1,3]thiazine]-2′,7-diamine]: in the test on Abeta 40, the “% reduction of rat CSF Abeta 40 levels at 10 mpk” value is reported as 71%. Besides, the “% reduction of rat brain levels at 10 mpk” value in the test on Abeta 40 came out at 47%. The IC50 came out at 3.3 nM in test [1] (Homo sapiens, HEK293); 4.4 nM in test [2]; 373000 nM on Cathepsin D.

Regarding `COc1cnc2c(Nc3ccc4c(c3)[C@@]3(CCOC(N)=N3)c3cc(C5CC5)ncc3O4)nccc2n1` [Example 42, (5S)-3-cyclopropyl-N~7~-(2-methoxypyrido[3,4-b]pyrazin-5-yl)-5′,6′-dihydrospiro[chromeno[2,3-c]pyridine-5,4′-[1,3]oxazine]-2′,7-diamine], the IC50 in test [1] (Homo sapiens, HEK293) came out at 2.6 nM; in test [2], 6.9 nM; on Cathepsin D, 400000 nM.

For the molecule `COc1cnc2c(Nc3ccc4c(c3)[C@@]3(CCSC(N)=N3)c3cc(-c5cncc(F)c5)nc(F)c3O4)nccc2c1` [Example 41, (5S)-1-fluoro-3-(5-fluoro-3-pyridinyl)-N~7~-(3-methoxy-1,7-naphthyridin-8-yl)-5′,6′-dihydrospiro[chromeno[2,3-c]pyridine-5,4′-[1,3]thiazine]-2′,7-diamine], the IC50 in test [1] (Homo sapiens, HEK293) came out at 16 nM; in test [2] it was 3.2 nM; on Cathepsin D, 400000 nM.

Regarding `COc1cnc2c(Nc3ccc4c(c3)[C@@]3(CCOC(N)=N3)c3cc(C5=CCOCC5)ncc3O4)ccnc2c1` [Example 33], the IC50 came to 0.4 nM in test [1] and 19.4 nM in test [2].

In the case of `COc1cnc2c(Nc3ccc4c(c3)[C@@]3(CCOC(N)=N3)c3cc(Cl)nc(F)c3O4)nccc2c1` [Example 35, (5S)-3-chloro-1-fluoro-N-~7~-(3-methoxy-1,7-naphthyridin-8-yl)-5′,6′-dihydrospiro[chromeno[2,3-c]pyridine-5,4′-[1,3]oxazine]-2′,7-diamine], the IC50 amounted to 35.3 nM in test [1] (Homo sapiens, HEK293); 97.2 nM in test [2]; 400000 nM at Cathepsin D.

`COc1cnc2c(Nc3ccc4c(c3)[C@@]3(CCSC(N)=N3)c3cc(-c5ccnc(F)c5)nc(F)c3O4)nccc2c1` [Example 39, (5S)-1-fluoro-3-(2-fluoro-4-pyridinyl)-N~7~-(3-methoxy-1,7-naphthyridin-8-yl)-5′,6′-dihydrospiro[chromeno[2,3-c]pyridine-5,4′-[1,3]thiazine]-2′,7-diamine]: the IC50 in test [1] (Homo sapiens, HEK293) was determined as 12.3 nM; in test [2], 3.2 nM; on Cathepsin D it was 338000 nM.

For `COc1cnc2c(Nc3ccc4c(c3)[C@@]3(CCSC(N)=N3)c3cc(-c5ccnc(OC(C)C)c5)nc(F)c3O4)nccc2c1` [Example 40, (5S)-1-fluoro-N~7~-(3-methoxy-1,7-naphthyridin-8-yl)-3-(2-(1-methylethoxy)-4-pyridinyl)-5′,6′-dihydrospiro[chromeno[2,3-c]pyridine-5,4′-[1,3]thiazine]-2′,7-diamine], the concentration for half-maximal inhibition (IC50) came to 138 nM in test [1] (Homo sapiens, HEK293); 15.6 nM in test [2]; 400000 nM on Cathepsin D.

Regarding `COc1cnc2c(Nc3ccc4c(c3)[C@@]3(CCSC(N)=N3)c3cc(C5=CCCOC5)nc(F)c3O4)nccc2c1` [Example 31, (5S)-3-(5,6-dihydro-2H-pyran-3-yl)-1-fluoro-N~7~-(3-methoxy-1,7-naphthyridin-8-yl)-5′,6′-dihydrospiro[chromeno[2,3-c]pyridine-5,4′-[1,3]thiazine]-2′,7-diamine], the IC50 turned out to be 5.3 nM in test [1] (Homo sapiens, HEK293); 4.3 nM in test [2]; 313000 nM on Cathepsin D.

With `Cc1nc2c(Nc3ccc4c(c3)[C@@]3(CCOC(N)=N3)c3cc(C5=CCOCC5)ncc3O4)nccc2s1` [Example 44, (5S)-3-(3,6-dihydro-2H-pyran-4-yl)-N~7~-(2-methyl[1,3]thiazolo[4,5-c]pyridin-4-yl)-5′,6′-dihydrospiro[chromeno[2,3-c]pyridine-5,4′-[1,3]oxazine]-2′,7-diamine], the IC50 amounted to 4.1 nM in test [1] (Homo sapiens, HEK293); 5.3 nM in test [2]; 400000 nM on Cathepsin D.
